From ChEMBL document CHEMBL1150757, “Isolation, structure, synthesis, and antimitotic properties of combretastatins B-3 and B-4 from Combretum caffrum” (J Nat Prod, 1988) come the findings set out here.

pIC50: −log10 of the molar value.

In general, pIC50 refers to the negative decadic logarithm of the IC50, by convention in mol/L.

Assay [1] is described as follows: Inhibition of microtubule assembly after 15 mins.
Assay [2] concerns P388. The assay is described as follows: Cytotoxicity against mouse P388 cells. Type of assay: functional.
The nature of assay [3]: Displacement of [3H]colchicine from tubulin at inhibitor and colchicine ratio 100:1 after 10 mins relative to control. As to conditions: values are per cent of control. Background: Loss of bound radioactivity is the signal in a displacement assay; it reports binding, not function.
A short description of assay [4]: Displacement of [3H]colchicine from tubulin at inhibitor and colchicine ratio 1:1 after 10 mins relative to control. Also noted: concentration or dose not given beside the values. The conditions noted are these: values are per cent of control.
The test system of assay [5] is L1210. The assay is described as follows: Antimitotic activity in mouse L1210 cells assessed as increase in mitotic index at 2 to 7 times IC50 after 6 hrs relative to control. Type of assay: functional.
The nature of assay [6]: Displacement of [3H]colchicine from tubulin at inhibitor and colchicine ratio 10:1 after 10 mins relative to control. Also noted: concentration or dose not given beside the values. As to conditions: values are per cent of control.
Assay [7] relates to L1210. The experiment in a line: Cytotoxicity against mouse L1210 cells after 24 hrs. Type of assay: functional, cell-based. As to conditions: L1210, 24 h.

`COc1cc(CCc2ccc(O)cc2)cc(OC)c1OC`: the values for the pIC50 in assay [1] and in assay [7] were under 4.00 and 4.30, respectively. Besides, in assay [2], the ED50 is 0.25 Ug/ml. For the same compound, the residual binding, % of control in assay [3] amounted to 43%; in assay [4] it was 89%; in assay [6], 77%. In addition, the Activity in assay [5] is reported as 25%.

Consider `COc1cc([C@@H]2c3cc4c(cc3[C@H](O)[C@H]3COC(=O)[C@H]23)OCO4)cc(OC)c1OC` [PODOFILOX], for which the pIC50 in assay [1] is 5.40. For the same compound, the figures for the residual binding, % of control in assay [4] and in assay [6] were 11% and 0%, respectively.

Regarding `COc1ccc(CCc2cc(OC)c(OC)c(OC)c2)cc1OC`, the results for the negative-log IC50 (pIC50) in assay [1] and in assay [7] were under 4.00 and 4.70, respectively. In addition, the values for the residual binding, % of control in assay [3], in assay [4] and in assay [6] were 37%, 88% and 63%, respectively. Also, the Activity in assay [5] was 25%.

Consider `COc1cc(CCc2ccc(OC)c(O)c2)cc(OC)c1`, for which the pIC50 in assay [1] was 4.52; in assay [7] it was 6.00. Besides, the ED50 in assay [2] is on record as 1.7 Ug/ml. In addition, the results for the residual binding, % of control in assay [3], in assay [4] and in assay [6] were 3%, 38% and 8%, respectively. In assay [5], the Activity amounted to 25%.

Turning to `COc1cc(CCc2ccc(O)c(O)c2)cc(OC)c1`, the pIC50 in assay [1] is under 4.00; in assay [7] it was 6.00. Besides, the ED50 in assay [2] was 1.7 Ug/ml. Also, the results for the residual binding, % of control in assay [3], in assay [4] and in assay [6] were 10%, 75% and 31%, respectively. Moreover, in assay [5], the Activity came to 25%.

`COc1ccc(CCc2cc(OC)c(OC)c(OC)c2)c(O)c1O`: the pIC50 in assay [1] is 5.40; in assay [7], 5.70. Moreover, the figures for the residual binding, % of control in assay [4] and in assay [6] were 13% and 0%, respectively. Also, in assay [5], the Activity was 25%.

For the compound `COc1cc(CCc2ccc(OC)c(OC)c2)cc(OC)c1`, the values for the pIC50 in assay [1] and in assay [7] were under 4.00 and 4.52, respectively. For the same compound, the results for the residual binding, % of control in assay [3], in assay [4] and in assay [6] were 34%, 90% and 80%, respectively. Also, the Activity in assay [5] was 56%.

Consider `COc1cc(CCc2ccc(O)c(O)c2)cc(OC)c1OC`, for which the pIC50 in assay [1] was under 4.00; in assay [7] it was 5.52. Further, the ED50 in assay [2] amounted to 0.4 Ug/ml. For the same compound, the residual binding, % of control amounted to 48% in assay [3], 92% in assay [4] and 81% in assay [6]. The Activity in assay [5] was found to be 25%.

On to `COc1ccc(/C=C\c2cc(OC)c(OC)c(OC)c2)c(O)c1O` [COMBRETASTATIN A-1], for which the pIC50 was 5.40 in assay [1] and 6.22 in assay [7]. The residual binding, % of control in assay [4] was found to be 3%; in assay [6], 0%. For the same compound, in assay [5], the Activity amounted to 25%.
